We go through four compounds from US9205086B2, “Cancer therapy using a combination of a Hsp90 inhibitory compounds and a EGFR inhibitor” (Synta Pharmaceuticals Corp., priority 2010, dated 2015).

A word on the Cmax: it is the maximum level reached in the sampled fluid or tissue.

SMILES strings stand for the structures. Entries after “also recorded” stand apart in the source; their conditions may differ. Structures can show the parent of a compound that is named as a salt.

Data set [1] can be described thus: In vivo pharmacokinetic (drug-drug interaction) study in SCID mice, plasma by HPLC. Also on record: species or system mouse. Particulars: for AUCINF / T½ / Cmax: plasma; for Cmax: female, CB17/Icr-Prkdc^scid/Crl (SCID), mouse. An excerpt: Six to eight week old, female CB17/Icr-Prkdc^scid/Crl (SCID) mice were obtained from Charles River Laboratories (Wilmington, Mass., USA). Animals were housed 4-5/cage in micro-isolators, with a 12 hr/12 hr light/dark cycle, acclimated for at least 1 week prior to use and fed normal laboratory chow ad libitum.

Data set [2] has as its system human NSCLC cell line HCC827. Put plainly: SCID mouse xenograft, tumor growth (% T/C). Type of data set: in vivo. To be noted: for % T/C value: day 34. As to the method:
FBS was obtained from ATCC and all other reagents were obtained from Invitrogen Corp. (Carlsbad, Calif., USA). Cells that had been cryopreserved in liquid nitrogen were rapidly thawed at 37° C. and transferred to a tissue culture flask containing growth media and then incubated at 37° C. in a 5% CO2 incubator. […] Cultures were passaged by washing with 10 mL of room temperature phosphate buffered saline (PBS) and then disassociating cells by adding 5 mL 1× trypsin-EDTA and incubating at 37° C. until the cells detached from the surface of the flask. To inactivate the trypsin, 5 mL of growth media was added and then the contents of the flask were centrifuged to pellet the cells. The supernatant was aspirated and the cell pellet was resuspended in 10 mL of growth media and the cell number determined using a hemocytometer. Cells were seeded into 175 cm^2 flasks containing 50 mL of growth media and incubated at 37° C. in a 5% CO2 incubator.

In data set [3] the test system is RERF-LC-AI^IVP human lung tumor cells. Briefly: Nude mouse xenograft, tumor growth. To be noted: 5 times per week, 15 doses. Type of data set: in vivo. How it is done: The human squamous non-small cell lung cancer cell line, RERF-LC-AI (RCB0444; S. Kyoizumi, et al., Cancer. Res. 45:3274-3281, 1985), was obtained from the Riken Cell Bank (Tsukuba, Ibaraki, Japan). The cell line was cultured in growth media prepared from 50% Dulbecco's Modified Eagle Medium (high glucose), 50% RPMI Media 1640, 10% fetal bovine serum (FBS), 1% 100× L-glutamine, 1% 100× penicillin-streptomycin, 1% 100× sodium pyruvate and 1% 100×MEM non-essential amino acids. FBS was obtained from American Type Culture Collection (Manassas, Va., USA) and all other reagents were obtained from Invitrogen Corp. (Carlsbad, Calif., USA). Approximately 4-5×10(6) cells that had been cryopreserved in liquid nitrogen were rapidly thawed at 37° C. and transferred to a 175 cm^2 tissue culture flask containing 50 ml of growth media and then incubated at 37° C. in a 5% CO2 incubator.
The growth media was replaced every 2-3 days until the flask became 90% confluent, typically in 5-7 days. […] The supernatant was aspirated and the cell pellet was resuspended in 10 ml of growth media and the cell number determined using a hemocytometer. […]
Studies were conducted on animals between 8 and 12 weeks of age at implantation. […] Tumor volumes (V) were calculated by caliper measurement of the width (W), length (L) and thickness (T) of tumors using the following formula: V=0.5236×(L×W×T). […]

Data set [4] can be described thus: Body weight change in nude mouse xenograft study. The class given is in vivo. Particulars: 200 mg/kg body weight i.p., 5 times per week, 15 doses, tumor-bearing nude mice. How it is done:
The Hsp90 inhibitor, 17-allylamino-17-demethoxygeldanamycin (17-AAG), was employed as a positive control (Albany Molecular Research, Albany, N.Y., USA). […] Animals were intraperitoneally (i.p.) injected with this solution at 10 ml per kg body weight on a schedule of 5 days per week (Monday, Tuesday, Wednesday, Thursday and Friday, with no dosing on Saturday and Sunday) for a total of 15 doses.

A further data set deals with JAK2 mutant JAK2V617F (Homo sapiens, UniProt O60674, V617F). Particulars: cited from earlier work.
Sequence of JAK2 mutant JAK2V617F (O60674 whole entry V617F): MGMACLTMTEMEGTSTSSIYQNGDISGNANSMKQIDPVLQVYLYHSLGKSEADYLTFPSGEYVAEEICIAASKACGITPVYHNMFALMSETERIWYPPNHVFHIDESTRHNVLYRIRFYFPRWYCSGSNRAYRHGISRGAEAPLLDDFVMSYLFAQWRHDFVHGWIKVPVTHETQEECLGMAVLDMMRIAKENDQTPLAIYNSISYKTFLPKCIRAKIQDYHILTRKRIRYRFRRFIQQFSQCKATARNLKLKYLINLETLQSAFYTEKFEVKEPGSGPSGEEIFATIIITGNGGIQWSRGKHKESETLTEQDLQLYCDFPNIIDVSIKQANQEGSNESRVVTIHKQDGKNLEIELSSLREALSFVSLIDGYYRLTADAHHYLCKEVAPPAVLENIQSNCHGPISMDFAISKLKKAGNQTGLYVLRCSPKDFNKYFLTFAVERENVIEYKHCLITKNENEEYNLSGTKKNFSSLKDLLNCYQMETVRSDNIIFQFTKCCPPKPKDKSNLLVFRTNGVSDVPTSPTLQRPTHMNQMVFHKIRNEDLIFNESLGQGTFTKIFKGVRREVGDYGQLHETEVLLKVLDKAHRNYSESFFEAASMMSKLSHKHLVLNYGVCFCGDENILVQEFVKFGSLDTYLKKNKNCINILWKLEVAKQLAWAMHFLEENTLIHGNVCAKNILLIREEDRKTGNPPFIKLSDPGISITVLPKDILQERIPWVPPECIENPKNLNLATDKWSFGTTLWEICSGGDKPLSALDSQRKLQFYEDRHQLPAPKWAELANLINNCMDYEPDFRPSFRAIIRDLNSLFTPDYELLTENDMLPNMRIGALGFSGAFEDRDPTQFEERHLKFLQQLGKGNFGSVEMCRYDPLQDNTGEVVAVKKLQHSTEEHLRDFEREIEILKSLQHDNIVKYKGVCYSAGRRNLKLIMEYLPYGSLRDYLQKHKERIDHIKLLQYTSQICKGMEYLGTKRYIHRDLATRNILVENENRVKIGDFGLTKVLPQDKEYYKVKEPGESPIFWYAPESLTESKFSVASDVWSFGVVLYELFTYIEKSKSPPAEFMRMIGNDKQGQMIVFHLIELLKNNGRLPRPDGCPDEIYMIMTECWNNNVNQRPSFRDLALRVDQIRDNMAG
Setting [5] is: 50 mg/kg Compound 1 plus 25 mg/kg erlotinib HCl, SCID mice.
The mark [6] stands for this setting: analyte Compound 1, Compound 1 50 mg/kg + erlotinib HCl 25 mg/kg, single dose.
[7] abbreviates: analyte Compound 1, Compound 1 50 mg/kg alone, single i.v. dose.
Setting [8] is: analyte erlotinib HCl, erlotinib HCl 25 mg/kg + Compound 1 50 mg/kg, single dose.
Where [9] appears, read: analyte erlotinib HCl, erlotinib HCl 25 mg/kg alone, single dose.

Regarding `CC(C)c1cc(-c2nnc(O)n2-c2ccc3c(ccn3C)c2)c(O)cc1O` [Compound 1, 3-(2,4-DIHYDROXY-5- ISOPROPYL-PHENYL)-4-(1- METHYL-INDOL-5-YL)-5- HYDROXY-[1,2,4]TRIAZOLE], in data set [1] (setting [5]), the “effect of erlotinib HCl on plasma half-life, Cmax and total plasma exposure (AUCinf) of Compound 1” value is listed as “no significant effect; also recorded: did not affect”. The figures for the AUCINF in data set [1] (setting [6]) and in data set [1] (setting [7]) were 36.0 μMXHR and 38.5 μMXHR, respectively. Also, the T½ in data set [1] (setting [6]) amounted to 4.5 h; in data set [1] (setting [7]), 4.7 h. The Cmax in data set [1] (iv, 50 mg/kg, analyte Compound 1, Compound 1 50 mg/kg + erlotinib HCl 25 mg/kg, single dose) came to 93.4 µM; in data set [1] (iv, 50 mg/kg, analyte Compound 1, Compound 1 50 mg/kg alone, single i.v. dose), 118 µM. The “HCC827 tumor growth in SCID mice” value in data set [2] (Compound 1 50 mg/kg i.v. once per week, 3 doses, 50 mg/kg) is “moderately inhibited HCC827 tumor growth”. Moreover, the “% T/C value” in data set [2] (Compound 1 50 mg/kg i.v. once per week) amounted to 15%.

On to `C=CCNC1=C2C[C@@H](C)C[C@H](OC)[C@H](O)[C@@H](C)/C=C(\C)[C@H](OC(N)=O)[C@@H](OC)/C=C\C=C(/C)C(=O)NC(=CC1=O)C2=O` [Compound 17-AAG, 17-allylamino-17-demethoxygeldanamycin, reference compound], for which the “growth rate of RERF-LC-AI^IVP human lung tumor cells in nude mice” value in data set [3] (75 mg/kg body weight i.p.) is on record as “inhibited tumor growth; also recorded: decreased the growth rate”.

Regarding `CCc1cc(-c2nnc(S)n2-c2ccc(OC)c3c2ccn3C(C)C)c(O)cc1O` [Compound 26, 3-(2,4-DIHYDROXY-5-ETHYL- PHENYL)-4-(1-ISOPROPYL-7- METHOXY-INDOL-4-YL)-5- MERCAPTO[1,2,4]TRIAZOLE], the “overt toxicity (effect on body weights)” value in data set [4] is listed as “not associated with overt toxicity; also recorded: not overtly toxic”. Besides, in data set [3] (200 mg/kg body weight i.p.), the “growth rate of RERF-LC-AI^IVP human lung tumor cells in nude mice” value was “inhibited tumor growth; also recorded: decreased the growth rate”.

With `C#Cc1cccc(Nc2ncnc3cc(OCCOC)c(OCCOC)cc23)c1` [erlotinib HCl], the “inhibition of JAK2V617F” value on JAK2 mutant JAK2V617F was “potently inhibits”. Moreover, the “effect of Compound 1 on plasma half-life, Cmax and total plasma exposure (AUCinf) of erlotinib HCl” value is “little or no effect” in data set [1] (setting [5]) and “little effect” in data set [1] (50 mg/kg Compound 1 plus 25 mg/kg erlotinib HCl, SCID mice, listed as erlotinib). Besides, the figures for the AUCINF in data set [1] (setting [8]) and in data set [1] (setting [9]) were 39.0 μMXHR and 28.1 μMXHR, respectively. The T½ in data set [1] (setting [8]) was 2.8 h; in data set [1] (setting [9]), 1.7 h. The “increase in total plasma exposure of erlotinib HCl” value in data set [1] (combination with Compound 1 versus erlotinib HCl alone) was determined as 39%. The Cmax stood at 4.94 µM in data set [1] (intravenous, 25 mg/kg, analyte erlotinib HCl, erlotinib HCl 25 mg/kg + Compound 1 50 mg/kg, single dose) and 4.11 µM in data set [1] (intravenous, 25 mg/kg, analyte erlotinib HCl, erlotinib HCl 25 mg/kg alone, single dose). Moreover, the “% T/C value” in data set [2] (erlotinib HCl 25 mg/kg p.o. once per week) stood at 23%.
